In patent US9072729B2, “Method for treating fibrosis and cancer with imidazolium and imidazolinium compounds” (Agency for Science, Technology and Research, priority 2008, dated 2015):

Experiments:
HLE cells [1] = assay: Growth inhibition assay (MTT), HLE; type: cell-based, human
Procedure: The effect of IMSs (IBN-15, IBN-19, IBN-24, IBN-25 and IBN-32) on the proliferative properties of p53 mutant cell line HLE was examined. The cytotoxicity activity and proliferation inhibition of IMSs in tumor cells were measured by MTT. […] The control experiments with DMSO alone (0.05% v/v) had no effect on cell proliferation. […] (Table 4) Microscopic observation on the cell cultures visually confirmed the inhibition on cell proliferation by IMSs. (FIG. 35)

HLE cells [2] = assay: Apoptosis assay (Annexin V-FITC/PI flow cytometry); type: cell-based, human; settings: 72 h, IBN-15 60 μM, IBN-19 90 μM, IBN-24 90 μM, IBN-25 30 μM, IBN-32 20 μM, DMSO 0.045%
Procedure: FIG. 36. IMSs induce apoptosis in Hepatocarcinoma cells. A) Cells were treated with vehicle and IBN 15, IBN 19, IBM 24, IBN 25 and IBN 32 for 72 h, and apoptosis was quantified using Annexin V-FITC/PI staining followed by flow cytometric analysis. 10,000 cells were detected for every sample. Living cells are in the bottom left quadrants (FITC− and PI−), early apoptotic cells in the bottom right quadrants (FITC+ and PI−), and late apoptotic cells in the upper right quadrants (apoptotic FITC+ and PI+). B) The percentage of apoptotic cells with respect to different IMSs.
To determine apoptosis analysis, 4×10^5 cells were plated in 10 cm dish. […] The floating and trypsinized adherent cells were collected and the apoptosis was quantified using Annexin V-FITC reagent (BD Biosciences Pharmingen) and PI (Invitrogen) following the manufacturer's protocol. Briefly, the cells were washed twice with cold PBS and then resuspend cell in 100 μl of × binding buffer containing a 10 μl of Annexin V-FITC (BD-Pharminagen) and 2 μl of PI from the stock of 100 μg/ml. The cells were gently vortexed and incubated for 15 min at room temperature in the dark. Subsequently 400 μl of 1× binding buffer were added to each tube, and the samples were immediately analyzed by FACScan flow cytometer (Becton Dickinson). The fluorescent signals of the Annexin-V conjugate and PI were detected at channels of fluorescence intensity FL1 and FL2 (BD LSR II with software BD).
Cells undergoing apoptosis would stain positive for Annexin and negative for PI (quadrant 4, Q4). Cells which stained positive for both Annexin V-FITC and PI (Q2) are either at the end stage of apoptosis or undergoing necrosis, and those which stained negative for both Annexin V-FITC and PI (Q3) were alive or undergoing undetectable apoptosis. In contrast, cell debris stained only for PI (Q1).

[3] = tested on: liver fibrosis induced by bile duct ligation (BDL); assay: Liver fibrosis in mice induced by bile duct ligation (BDL); type: in vivo, mouse; settings: for liver fibrosis (Sirius Red collagen): drinking water, 4 weeks, DBZIM 10 mg/L, DPIM 1 g/L
Procedure: FIG. 15 Effect of DBZIM and DPIM on liver fibrosis in mice. DBZIM was tested on mice induced by (a) liver toxin thioacetamide (TAA) or by (b) bile duct ligation (BDL). DPIM was also tested on mice induced by TAA (data not shown)) or by (c) bile duct ligation (BDL).
FIG. 16. Representative of images of Sirius red staining in liver sections from different DPIM compound treated group mice. Each treated group had 6-8 mice, except for 500 mg/l treated group, which had only one mouse in the group. Red staining areas represent collagen deposits. (A) sham operated, (B) sham operated+DPIM 1 g/l for 4 weeks, (C) BDL for 4 weeks, (D) BDL 4 weeks+500 mg/l DPIM treatment, (E) BDL 4 weeks+750 mg/l DPIM treatment, and (F) BDL 4 weeks+1 g/l DPIM treatment.
FIG. 17. Percentage of Sirius red staining areas. Sirius red staining areas from different treatment group mice were quantified with Image J software, at least 6 different areas from left and middle lobes of liver of each mouse were covered. *P<0.05, BDL vs. DPIM treated groups; # P<0.05, 750 mg/l vs. 1 g/l treated groups.
FIG. 18. Liver weights of different treatment groups. Each group consisted of 6-8 mice which were 10-12 weeks old at the start of surgery procedure. *P<0.05, sham operated control group vs: BDL 4 weeks, **P<0.05, DPIM compound treated groups vs; BDL weeks group, # P<0.05, 750 mg/l DPIM treated group vs. 1 g/l DPIM treated group.
FIG. 19. Representative images of H&E staining of liver sections. (A) control group; (B) BDL 4 weeks group; and (C) BDL 4 weeks+DPIM 1 g/l treatment group.
FIG. 20. Quantitative real-time PCR for collagen 1a1 mRNA. DPIM reduced collagen 1a1 mRNA.
For the liver toxin thioacetamide (TAA) model, TAA was given by i.p. injection at 200 mg/kg body weight, 3 times per week, for 12 weeks, to induce hepatic fibrosis in mice. For the bile duct ligation model (BDL), adult mice were anesthetized with Ketamine (150 mg/kg)/Xylazine (10 mg/kg) via i.p. injection. An abdominal incision at the midline is made to expose the common bile conduct, which was then ligated using 5-0 silk suture. In the control animal, the bile duct is exposed, but not ligated. DBZIM or DPIM was provided to the mice in drinking water at concentrations from 1 to 1000 mg/liter. The collagen content in the fibrotic liver was assessed by the Sirius Red staining of the liver tissue sections.
Male FVB/N mice (8-10 weeks old) housed in a specific pathogen-free (SFP) facility on a 12 hour dark-light cycle and with free access to water and diet were used in the study. The animal experiment protocol was approved by the institutional animal care and use committee (IACUC), the Biomedical Research Council (BMRC) of Singapore.
Cholestatic fibrosis was induced by BDL, briefly, mice were anesthetized with intraperitoneal injection of ketamine (150 mg/kg) and xylazine (10 mg/kg), after midline laparotomy, the common bile duct was ligated twice with 5-0 silk suture. The sham operation was performed similarly except that bile duct was not double ligated. The experimental mice were divided into four groups: 1) control only (sham operated, but no BDL); 2) control+DPIM; 3) BDL only; 4) BDL+DPIM. Each group consists of 6-8 mice. DPIM compound for treatment was supplied in the drinking water at three concentrations, 500 mg/l, 750 mg/l, 1 g/l, respectively. The drinking water containing DPIM was changed weekly. It was observed that on average each mouse (normal or operated) drank approximately 3-4 ml plain or DPIM-containing water every day. […] The compound treatment was started on the third day after animals recovered from the BDL procedure. After 4 weeks, livers were removed from mice for fixation 10% formalin, subsequently embedded in paraffin.
For consistency, paraffin-sections prepared from the left and median lobes were stained with Sirius-Red to visualize the collagen content. […]

CC(=O)Oc1ccc(C[n+]2ccn(Cc3ccccc3)c2C)cc1.[Cl-] [IBN-19, 1-benzyl-3-(4-acetate-benzyl)-2-methyl-imidazolium chloride] was tested, and the IC50 (HLE cells [1]; 72 h) was 90 µM, the IC50 (HLE cells [1]; 120 h) was 28 µM and the “cell apoptosis (Q2)” value (HLE cells [2]) was 29%.
CC(C)n1cc[n+](C(C)C)c1.F[B-](F)(F)F [DPIM, 1,3-diisopropylimidazolium tetrafluoroborate] was tested, and the liver weight ([3]; BDL 4 weeks + 750 mg/l (BDL alone 2.74±0.51 g)) was 1.97 ± 0.44 g, the “Sirius-Red positive areas (percentage of staining areas; BDL alone 8.69)” value ([3]; BDL 4 weeks + 750 mg/l in drinking water) was 4.33% and the “proliferative cells around the sinusoidal area (H&E staining)” value ([3]; BDL 4 weeks + 1 g/l) was “reduced the number of proliferative cells”. For the same compound, the liver weight ([3]; BDL 4 weeks + 1 g/l (BDL alone 2.74±0.51 g)) was 1.65 ± 0.20 g, the “Sirius-Red positive areas (percentage of staining areas; BDL alone 8.69)” value ([3]; BDL 4 weeks + 1 g/l in drinking water) was 3.42% and the “liver collagen 1a1 mRNA” value ([3]; BDL model) was “reduced the collagen 1a1 mRNA”. For the same compound, the “liver fibrosis (Sirius Red collagen)” value ([3]; BDL model) was “displayed its effect”, the “collagen build-up in sham mice” value ([3]; sham operated + 1 g/l for 4 weeks) was “did not induce any significant build-up of collagen” and the liver weight ([3]; sham operated + DPIM for 4 weeks (sham 1.50±0.19 g)) was 1.56 ± 0.08 g.
With Cc1ccc(C[n+]2ccn(Cc3ccccc3)c2)cc1.[Cl-] [IBN-24, 1-benzyl-3-(4-methylbenzyl)-imidazolium chloride] the IC50 (HLE cells [1]; Homo sapiens, 72 h) was 90 µM, the IC50 (HLE cells [1]; Homo sapiens, 120 h) was 30 µM and the “cell apoptosis (Q2)” value (HLE cells [2]) was 29%.
For [Br-].c1ccc(Cn2cc[n+](Cc3ccccc3)c2)cc1 [DBZIM, 1,3-bisbenzylimidazolium bromide], the “liver fibrosis (Sirius Red collagen)” value ([3]; BDL model) was “attenuated fibrosis”.
